Test results as given in patent publication US4317770A, “D-amino acid analogs of beta-endorphin” (Hoffmann-La Roche Inc., priority 1977, dated 1982).
“Also recorded” adds a separate entry of the source.

What was measured:
mice [1] = assay: analgesic potency in mice, tail-flick method, iv injection; assay type: in vivo, mouse; details: for inhibition of tail-flick response: iv
Description: (§1) The opiate activities of the analogs relative to βc -endorphin were measured in vitro in the guinea pig ileum (Brit. J. Pharmacol. 39, 398 (1970)) and in vivo by icv and iv injections using the tail-flick method (D'Amour and Smith, J. Pharmacol. Exp. Ther. 72,74 (1941). The results are summarized in Tables 2 and 3.
(§2) The analgesic properties of β-endorphin and its analogs were also assessed in mice by the tail-flick method of D'Amour and Smith, supra. The peptides, dissolved in saline, were injected either icv in a volume of 5 μl, according to the method described by Haley and McCormick, Brit. J. Pharmacol. 12, 12 (1957) or iv via the tail vein. To evaluate this analgesic response, a control latency (T0) was obtained from the mean of two latencies determined prior to drug injections, and the test latencies (T1) were determined at various times after injection for each animal. "Percent analgesic" was calculated as [(T1 -T0)/[…]]×100, where the cut off time (T2) was 10 sec.

[2] = cited from earlier work; for in vivo analgesic activity (duration): injected intracranially / centrally
[3] = injected into the peripheral system; cited from earlier work
[4] = system: myenteric plexus longitudinal muscle preparation from guinea pig ileum; assay: opiate activity, guinea pig ileum assay (electrically stimulated); assay type: cell-based; details: for order of activity in the guinea pig ileum assay: human endorphin analogs vs camel endorphin analogs; for IC50: in vitro; for Relative Potency: relative to βc-endorphin = 100
Description: as §1
The opiate activity was assayed in vitro by electrically stimulated myenteric plexus longitudinal muscle preparation from guinea pig ileum by the method of Kosterlitz et al., supra.

mice [5] = assay: analgesic potency in mice, tail-flick method, icv injection; assay type: in vivo, mouse; details: for order of activity in the mouse tail flick method: human endorphin analogs vs camel endorphin analogs, route not stated; for AD50 / Relative Potency (analgesic potency) / analgesic activity: mice, tail-flick; for AD50: 95% confidence limits in parentheses; for Relative Potency (analgesic potency): calculated on molar basis using the AD50 of βc-endorphin as 100%
Description: as §2

leucine aminopeptidase = details: compared with enkephalin; cited from earlier work

## β-endorphin
Mice [1]; intravenous, comparison of β-endorphin with D-Ala^2 analog
  duration of action: longer than its D-Ala^2 analog
Mice [1]; iv injection
  AD50: 9.4 mg/kg
  analgesic activity after iv injection: potent analgesic
[2]
  in vivo analgesic activity (duration): long lasting
[3]
  in vivo analgesic activity, peripheral injection: displays in vivo analgesic activity when injected into the peripheral system

## [D-Met^5 ]-βh -endorphin
[4]
  order of activity in the guinea pig ileum assay: same order of activity
Mice [5]
  order of activity in the mouse tail flick method: same order of activity

## CC(C)C[C@H](NC(=O)[C@H](Cc1ccccc1)NC(=O)CNC(=O)CNC(=O)[C@@H](N)Cc1ccc(O)cc1)C(=O)O [enkephalin]
[2]
  in vivo analgesic activity (duration): short duration

## [D-Tyr^1 ]-βh -endorphin
[4]
  order of activity in the guinea pig ileum assay: same order of activity
Mice [5]
  order of activity in the mouse tail flick method: same order of activity

## CN1CC[C@]23c4c5ccc(O)c4O[C@H]2[C@@H](O)C=C[C@H]3[C@H]1C5.O=S(=O)(O)O [Morphine sulfate, reference compound]
Mice [5]; icv
  AD50: 0.42 (0.36-0.49) μg/25 g mouse

## [D-Phe^4 ]-βc -endorphin [[D-Phe^4]-βc -EP]
[4]; guinea pig ileum
  IC50: 670 nM
[4]
  Relative Potency: 4
Mice [5]
  Relative Potency (analgesic potency): < 0.3%
Mice [5]; icv, doses up to 43 μg
  behavioural effect (hyperreactivity): hyperreactivity to touch or vocal stimulation
  inhibition of tail-flick response: not active
Mice [5]; icv
  AD50: > 43 μg/25 g mouse

## [D-Ala^2 ]-β-enkephalinamide
[2]
  in vivo analgesic activity (duration): long-lasting analgesia
[2]; relative to enkephalin, route not stated at the place
  analgesic activity compared with enkephalin: greater analgesic activity

## [D-Phe^4 ]-βh -endorphin
[4]
  order of activity in the guinea pig ileum assay: same order of activity
Mice [5]
  order of activity in the mouse tail flick method: same order of activity

## [D-Ala^2 ]-enkephalin
[2]
  in vivo analgesic activity (duration): long-lasting analgesia

## [D-Tyr^1 ]-βc -endorphin [[D-Tyr^1]-βc -EP]
[4]; guinea pig ileum
  IC50: 2900 nM
[4]
  Relative Potency: ≤ 1
Mice [5]
  Relative Potency (analgesic potency): 0.5%
Mice [5]; icv
  AD50: 22.5 (13.4-37.8) μg/25 g mouse

## [D-Ala^2 ]-βc -endorphin [[D-Ala^2]-βc -EP]
[4]; guinea pig ileum
  activity in in vitro assay relative to parent molecule: 43%
  IC50: 63 nM
[4]
  Relative Potency: 43
Mice [5]
  Relative Potency (analgesic potency): 100.0%
Mice [5]; listed as [D-Ala^2 ]-βc -endorphin
  Relative Potency (analgesic potency): 100%
Mice [5]; icv, doses of 0.11 to 0.42 μg
  antagonism of analgesic response by naloxone: blocked by naloxone
  duration of analgesic response: 30 to 90 min
Mice [5]; icv, higher dose
  antagonism of analgesic response by naloxone: also blocked by naloxone
  duration of response at higher dose: prolonged
Mice [5]; icv
  analgesic activity: little alteration in analgesic activity
  AD50: 0.11 (0.08-0.17) μg/25 g mouse
Mice [5]; icv, listed as [D-Ala^2 ]-β-endorphin
  analgesic activity: most significant analgesic activity; also recorded: equipotent to βc -endorphin; also recorded: dose-related increase in analgesic response
Mice [1]; 25.5 mg/kg
  inhibition of tail-flick response: not active

## [D-Met^5 ]-βc -endorphin [[D-Met^5]-βc -EP]
[4]; guinea pig ileum
  IC50: 660 nM
[4]
  Relative Potency: 4
Mice [5]
  Relative Potency (analgesic potency): 1.0%
Mice [5]; icv
  analgesic activity: still possesses analgesic activity
  AD50: 11.48 (7.17-18.36) μg/25 g mouse
Mice [1]; even at 120 mg/kg
  inhibition of tail-flick response: not active

## [D-Ala^2 ]-βh -endorphin
[4]
  order of activity in the guinea pig ileum assay: same order of activity
Mice [5]
  order of activity in the mouse tail flick method: same order of activity

## βc -endorphin: β-endorphin having a sequence derived from camel; synthesized as control (YGGFMTSEKSQTPLVTLFKNAIIKNAHKKGQ; Beta-endorphin; UniProt P01203 1-31, looked up) [reference compound]
[4]; guinea pig ileum
  IC50: 27 nM
[4]
  Relative Potency: 100
Mice [5]
  Relative Potency (analgesic potency): 100.0%
Mice [5]; icv
  analgesic activity: much more active than morphine
  AD50: 0.11 (0.07-0.17) μg/25 g mouse
Leucine aminopeptidase
  resistance to attack by leucine aminopeptidase: substantially more resistant to attack by leucine aminopeptidase than is enkephalin
